Reference: PMC12352619, “Phylogeny-guided discovery of a promiscuous P450 macrocyclase for the production of diverse atropopeptides” (Chemical Science, 2025)

Legend:
[1] = system: B/Malaysia/2506/2004 (Malaysia/B); test: Screening of antiviral activity in MDCK II cells, Malaysia/B; format: cell-based, influenza virus; details: for antiviral effect: MOI 0.001, 48 h, CellTiter-Glo, normalized to aprotinin = 100%; for antiviral efficacy compared among the tested atropopeptides: statement made for the four strains together
[2] = system: B/Massachusetts/71 (Massachusetts/B); test: Screening of antiviral activity in MDCK II cells, Massachusetts/B; format: cell-based, influenza virus; details: for antiviral effect: MOI 0.001, 48 h, CellTiter-Glo, normalized to aprotinin = 100%; for antiviral efficacy compared among the tested atropopeptides: statement made for the four strains together
ICAM1 = format: cell-based, mouse; details: b.End.3 cells, 1 µg/ml LPS, peptide 1 µg/ml added 8 hours after stimulation, for 60 h, flow cytometry, n = 6 technical replicates
MDCK II cells = details: 100 µM, 48 h, CellTiter-Glo
[3] = system: A/Hamburg/05/2009 (H1N1pdm); test: Screening of antiviral activity in MDCK II cells, H1N1pdm; format: cell-based, influenza virus; details: for antiviral effect: MOI 0.001, 48 h, CellTiter-Glo, normalized to aprotinin = 100%; for antiviral efficacy compared among the tested atropopeptides: statement made for the four strains together
A/Hessen/1/2003 (H3N2) = test: Screening of antiviral activity in MDCK II cells, H3N2; format: cell-based, influenza virus; details: for antiviral effect: MOI 0.001, 48 h, CellTiter-Glo, normalized to aprotinin = 100%; for antiviral efficacy compared among the tested atropopeptides: statement made for the four strains together
VCAM1 = format: cell-based, mouse; details: b.End.3 cells, 1 µg/ml LPS, peptide 1 µg/ml added 8 hours after stimulation, for 60 h, flow cytometry, n = 6 technical replicates

Substance: H-WYIW-OH (also: sidechain bridge or staple (positions not given here)) [compound 1, scabrirubin CB-1, cyclic tetrapeptide from S. albus/pUWL-LauA + ScaB, C–N biaryl crosslink between Trp-1 and Trp-4]
- antiviral effect [1]: dose-dependent antiviral effect
- antiviral efficacy compared among the tested atropopeptides [1]: comparable antiviral efficacies
- antiviral effect [2]: dose-dependent antiviral effect
- antiviral efficacy compared among the tested atropopeptides [2]: comparable antiviral efficacies
- ICAM1 expression (mean fluorescence intensity) (ICAM1): slight reduction
- cytotoxicity toward MDCK II cells (cell viability, ATP) (MDCK II cells): did not show cytotoxicity
- antiviral effect [3]: dose-dependent antiviral effect
- antiviral efficacy compared among the tested atropopeptides [3]: comparable antiviral efficacies
- antiviral effect (A/Hessen/1/2003 (H3N2)): dose-dependent antiviral effect
- antiviral efficacy compared among the tested atropopeptides (A/Hessen/1/2003 (H3N2)): comparable antiviral efficacies
- VCAM1 expression (mean fluorescence intensity) (VCAM1): unchanged

Substance: H-WYQWL-OH (also: sidechain bridge or staple (positions not given here)) [compound 3, scabrirubin CB-3, cyclic pentapeptide from S. albus/pUWL-SvaA + ScaB with C–N biaryl crosslink]
- antiviral effect [1]: dose-dependent antiviral effect
- antiviral efficacy compared among the tested atropopeptides [1]: slightly reduced activity
- antiviral effect [2]: dose-dependent antiviral effect
- antiviral efficacy compared among the tested atropopeptides [2]: slightly reduced activity
- ICAM1 expression (mean fluorescence intensity) (ICAM1): significantly reduced
- cytotoxicity toward MDCK II cells (cell viability, ATP) (MDCK II cells): did not show cytotoxicity
- antiviral effect [3]: dose-dependent antiviral effect
- antiviral efficacy compared among the tested atropopeptides [3]: slightly reduced activity
- antiviral effect (A/Hessen/1/2003 (H3N2)): dose-dependent antiviral effect
- antiviral efficacy compared among the tested atropopeptides (A/Hessen/1/2003 (H3N2)): slightly reduced activity
- VCAM1 expression (mean fluorescence intensity) (VCAM1): significantly reduced

Substance: scabrirubin [reference compound]
- antiviral effect [1]: dose-dependent antiviral effect
- antiviral efficacy compared among the tested atropopeptides [1]: comparable antiviral efficacies
- antiviral effect [2]: dose-dependent antiviral effect
- antiviral efficacy compared among the tested atropopeptides [2]: comparable antiviral efficacies
- ICAM1 expression (mean fluorescence intensity) (ICAM1): slight reduction
- cytotoxicity toward MDCK II cells (cell viability, ATP) (MDCK II cells): did not show cytotoxicity
- antiviral effect [3]: dose-dependent antiviral effect
- antiviral efficacy compared among the tested atropopeptides [3]: comparable antiviral efficacies
- antiviral effect (A/Hessen/1/2003 (H3N2)): dose-dependent antiviral effect
- antiviral efficacy compared among the tested atropopeptides (A/Hessen/1/2003 (H3N2)): comparable antiviral efficacies
- VCAM1 expression (mean fluorescence intensity) (VCAM1): slightly elevated
